From patent US5266319A, “Tannin derivatives and their use for treatment of hypertension” (National Science Council, priority 1992, dated 1993)

Experiments:
[1] = lethal dosage (LD50) in rats; assay type: in vivo; settings: rat, in vivo
Description: (§1) Furthermore, the lethal dosages (LD50) for the rats were determined. The LD50 of corilagin and geraniin were greater than 100 mg/kg, and the LD50 of 6-O-galloyl-D-glucose and 1,2,3,4,6-penta-O-galloyl-D-glucose were greater than 50 mg/kg. Therefore, these four tannins can be used as a safe and effective […] drugs.

normal rats (WKY) = assay: depression of tail arterial blood pressure in normal rats (WKY); assay type: in vivo, rat; settings: injected, Means±S.D., N=11
Description: (§2) The effect on the blood pressure of spontaneously hypertensive rats (SHR) and normal rats (WKY)
(§3) The tannins obtained in the example 1 were injected into various rats respectively at different concentrations.
(§4) The data (Means±S.D.) in table 1 represents the value of the depression range of blood pressure (N=11). In comparison to conventional antihypertensive drugs, guanethidine can depress the blood pressure of hypertensive rats in a range of 28.8±7.95 mmHg (N=8) with a injection concentration of 1 mg/kg, prazosin in a range of 31.4±7.17 mmHg (N=8) and nifedipine in a range of 10.8±2.78 mmHg (N=8) at the same concentration.

[2] = test system: spontaneously hypertensive rats (SHR); assay: depression of tail arterial blood pressure in spontaneously hypertensive rats (SHR); assay type: in vivo, rat; settings: for Depression of blood pressure, SHR: injected, Means±S.D., N=11; for depress the blood pressure of hypertensive rats (conventional antihypertensive drugs): 1 mg/kg injection, N=8
Description: as §2, §3, §4

[3] = test system: contraction of rat blood vessel (octopamine); assay: inhibition of octopamine-induced contraction of rat blood vessel; assay type: in vivo; settings: octopamine 8 × 10^-4 g/kg; dose 1 mg/kg i.v.; anesthetized normal rats; Means ± S.D.; n=8
Description: (§5) The effect on the contraction of rat blood vessel Norepinephrine and octopamine were injected into various anesthetized normal rats respectively, so that a contraction of rat blood vessels was induced and the blood pressure increased. […] Therefore, the tannins are potent in inhibiting the contraction of blood vessels and the effect of the tannins on the wall of blood vessel is also significant.

norepinephrine = assay: concentration of norepinephrine in blood (plasma NE); assay type: in vivo, rat; settings: injected to the veins, after ten minutes, Means ± S.D, N=6, Control 3.55 ± 0.31
Description: The effect on the concentration of norepinephrine in blood Four tannins were injected to the veins of various rats respectively at different concentrations. After ten minutes, the blood of the rats were sampled to determine the concentration of norepinephrine in their blood. Obviously, these compounds can reduce the concentration of norepinephrine,i.e., they can inhibit the secretion of norepinephrine and relax the adrenergic tension, and therefore the blood pressure can be reduced.

[4] = test system: contraction of rat blood vessel (norepinephrine); assay: inhibition of norepinephrine-induced contraction of rat blood vessel; assay type: in vivo; settings: norepinephrine 10^-6 g/kg; dose 1 mg/kg i.v.; anesthetized normal rats; Means ± S.D.; n=8
Description: as §5

rats = assay: lethal dosage (LD50) in rats; assay type: in vivo
Description: as §1

Row | SMILES | LD50 [1] [mg/kg] | Depression of blood pressure, WKY (normal rats (WKY); 1 mg/kg) [mmHg] | Depression of blood pressure, WKY (normal rats (WKY); 5 mg/kg) [mmHg] | Depression of blood pressure, SHR ([2]; 1 mg/kg) [mmHg] | Depression of blood pressure, SHR ([2]; 5 mg/kg) [mmHg] | Inhibition (%), Octopamine [3] [%] | Plasma NE (norepinephrine; 1 mg/kg) [pmol/mL] | Plasma NE (norepinephrine; 5 mg/kg) [pmol/mL] | Inhibition (%), Norepinephrine [4] [%] | depress the blood pressure of hypertensive rats (conventional antihypertensive drugs) [2] [mmHg] | Plasma NE (norepinephrine; 0.5 mg/kg) [pmol/mL] | LD50 (rats)
1 | O=C(OC[C@H]1O[C@@H](OC(=O)c2cc(O)c(O)c(O)c2)[C@H](OC(=O)c2cc(O)c(O)c(O)c2)[C@@H](OC(=O)c2cc(O)c(O)c(O)c2)[C@@H]1OC(=O)c1cc(O)c(O)c(O)c1)c1cc(O)c(O)c(O)c1 [1,2,3,4,6-penta-O-galloyl-D-glucose, 1,2,3,4,6-penta-O-galloyl-β-D-glucose] | > 50 | 2.62 ± 2.33 | 5.74 ± 2.41 | 13.28 ± 6.22 | 29.57 ± 13.38 | 72.1 ± 14.8 | 1.94 ± 0.19 | 1.23 ± 0.21 | 70.6 ± 10.7 | – | – | –
2 | N=C(N)NCCN1CCCCCCC1 [guanethidine, reference compound] | – | – | – | – | – | – | – | – | – | 28.8±7.95 | – | –
3 | O=C(O[C@@H]1O[C@@H]2COC(=O)c3cc(O)c(O)c(O)c3-c3c(cc(O)c(O)c3O)C(=O)O[C@H]([C@H]1O)[C@@H]2O)c1cc(O)c(O)c(O)c1 [Corilagin, corilagin] | > 100 | 3.85 ± 2.64 | 10.85 ± 4.89 | 17.85 ± 3.38 | 26.57 ± 7.92 | 65.5 ± 27.5 | 1.55 ± 0.19 | – | 83.4 ± 7.3 | – | 2.19 ± 0.22 | –
4 | COc1cc2nc(N3CCN(C(=O)c4ccco4)CC3)nc(N)c2cc1OC [prazosin, reference compound] | – | – | – | – | – | – | – | – | – | 31.4±7.17 | – | –
5 | O=C(OC[C@H]1OC(O)[C@H](O)[C@@H](O)[C@@H]1O)c1cc(O)c(O)c(O)c1 (stereo partly drawn) [6-O-galloyl-D-glucose] | > 50 | 5.81 ± 5.07 | 5.21 ± 3.48 | 17.28 ± 7.08 | 24.12 ± 9.93 | 65.3 ± 11.3 | 2.14 ± 0.09 | 1.76 ± 0.22 | 64.1 ± 15.1 | – | – | –
6 | O=C1O[C@H]2[C@@H]3OC(=O)c4cc(O)c(O)c(O)c4-c4c(cc(O)c(O)c4O)C(=O)OC[C@H]2O[C@@H](OC(=O)c2cc(O)c(O)c(O)c2)[C@@H]3OC(=O)c2cc(O)c(O)c3c2[C@@H]2C1=CC(=O)[C@](O)(O3)C2(O)O [Geraniin, geraniin] | – | 3.57 ± 4.72 | 13.28 ± 6.67 | 19.28 ± 5.49 | 25.85 ± 4.18 | 74.8 ± 13.5 | 2.17 ± 0.09 | – | 87.1 ± 6.5 | – | 2.66 ± 0.19 | greater than 100 mg/kg
7 | COC(=O)C1=C(C)NC(C)=C(C(=O)OC)C1c1ccccc1[N+](=O)[O-] [nifedipine, reference compound] | – | – | – | – | – | – | – | – | – | 10.8±2.78 | – | –
